# Literature values in patent US20250295106A1, “HERBICIDAL COMPOSITION” (NOURYON CHEMICALS INTERNATIONAL B.V., priority 2024, published 2025).
# Settings: acid form, at 25° C.
smiles,measurement,value
"O=C(O)CNCP(=O)(O)O [glyphosate, N-phosphonomethylglycine]",solubility in water,1.16 % by weight
